In one test the target is CFTR (Homo sapiens, UniProt P13569).
The subject of test [1] is cholera toxin-induced fluid secretion. Set-up: species or system rats. Particulars: in vivo.
The target of test [2] is T1, Cl^−/HCO3^− exchanger (AE1) (Homo sapiens, UniProt P02730).
T1 sequence (P02730 1-911): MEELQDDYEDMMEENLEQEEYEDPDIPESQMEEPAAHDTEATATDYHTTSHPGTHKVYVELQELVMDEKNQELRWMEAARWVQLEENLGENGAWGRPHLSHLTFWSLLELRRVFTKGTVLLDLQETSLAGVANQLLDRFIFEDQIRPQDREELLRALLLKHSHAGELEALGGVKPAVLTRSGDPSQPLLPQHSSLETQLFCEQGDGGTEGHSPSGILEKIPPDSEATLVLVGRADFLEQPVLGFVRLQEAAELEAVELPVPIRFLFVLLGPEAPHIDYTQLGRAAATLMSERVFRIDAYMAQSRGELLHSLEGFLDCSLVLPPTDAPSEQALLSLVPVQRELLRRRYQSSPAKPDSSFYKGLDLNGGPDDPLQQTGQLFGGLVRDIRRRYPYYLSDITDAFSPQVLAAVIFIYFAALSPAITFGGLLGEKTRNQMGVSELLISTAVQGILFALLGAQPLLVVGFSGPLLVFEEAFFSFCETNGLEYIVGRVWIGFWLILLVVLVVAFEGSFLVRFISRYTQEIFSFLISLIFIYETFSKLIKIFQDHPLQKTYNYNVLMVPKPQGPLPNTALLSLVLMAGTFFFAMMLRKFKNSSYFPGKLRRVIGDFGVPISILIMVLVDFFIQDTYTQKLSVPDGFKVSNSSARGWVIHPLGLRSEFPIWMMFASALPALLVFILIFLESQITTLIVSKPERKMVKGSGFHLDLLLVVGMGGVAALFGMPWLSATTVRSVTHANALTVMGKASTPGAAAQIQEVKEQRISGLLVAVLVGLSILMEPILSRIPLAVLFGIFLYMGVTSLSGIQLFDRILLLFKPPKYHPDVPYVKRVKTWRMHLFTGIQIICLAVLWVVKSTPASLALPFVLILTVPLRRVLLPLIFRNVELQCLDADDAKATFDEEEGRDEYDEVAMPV
In words: Cl^−/HCO3^− exchanger block. Particulars: 5 μM.

Test [3] concerns Volume-sensitive Cl^− channels. Nature of the test: Volume-activated Cl^− current, whole-cell patch clamp in FRT cells. Particulars: 5 μM; 250 mosM/kg hypotonic solution. It counts as cell-based, rat. The source says:
FIG. 4B is a graphical representation of volume-activated Cl^− current (hypotonic 250 mosM/kg H2O) measured in whole-cell patch clamp experiments on FRT cells.

The values that follow come from patent publication US8058295B2, “Cystic fibrosis transmembrane conductance regulator protein inhibitors and uses thereof” (The Regents of the University of California, priority 2002, dated 2011).

Chain of CFTR (P13569 whole entry): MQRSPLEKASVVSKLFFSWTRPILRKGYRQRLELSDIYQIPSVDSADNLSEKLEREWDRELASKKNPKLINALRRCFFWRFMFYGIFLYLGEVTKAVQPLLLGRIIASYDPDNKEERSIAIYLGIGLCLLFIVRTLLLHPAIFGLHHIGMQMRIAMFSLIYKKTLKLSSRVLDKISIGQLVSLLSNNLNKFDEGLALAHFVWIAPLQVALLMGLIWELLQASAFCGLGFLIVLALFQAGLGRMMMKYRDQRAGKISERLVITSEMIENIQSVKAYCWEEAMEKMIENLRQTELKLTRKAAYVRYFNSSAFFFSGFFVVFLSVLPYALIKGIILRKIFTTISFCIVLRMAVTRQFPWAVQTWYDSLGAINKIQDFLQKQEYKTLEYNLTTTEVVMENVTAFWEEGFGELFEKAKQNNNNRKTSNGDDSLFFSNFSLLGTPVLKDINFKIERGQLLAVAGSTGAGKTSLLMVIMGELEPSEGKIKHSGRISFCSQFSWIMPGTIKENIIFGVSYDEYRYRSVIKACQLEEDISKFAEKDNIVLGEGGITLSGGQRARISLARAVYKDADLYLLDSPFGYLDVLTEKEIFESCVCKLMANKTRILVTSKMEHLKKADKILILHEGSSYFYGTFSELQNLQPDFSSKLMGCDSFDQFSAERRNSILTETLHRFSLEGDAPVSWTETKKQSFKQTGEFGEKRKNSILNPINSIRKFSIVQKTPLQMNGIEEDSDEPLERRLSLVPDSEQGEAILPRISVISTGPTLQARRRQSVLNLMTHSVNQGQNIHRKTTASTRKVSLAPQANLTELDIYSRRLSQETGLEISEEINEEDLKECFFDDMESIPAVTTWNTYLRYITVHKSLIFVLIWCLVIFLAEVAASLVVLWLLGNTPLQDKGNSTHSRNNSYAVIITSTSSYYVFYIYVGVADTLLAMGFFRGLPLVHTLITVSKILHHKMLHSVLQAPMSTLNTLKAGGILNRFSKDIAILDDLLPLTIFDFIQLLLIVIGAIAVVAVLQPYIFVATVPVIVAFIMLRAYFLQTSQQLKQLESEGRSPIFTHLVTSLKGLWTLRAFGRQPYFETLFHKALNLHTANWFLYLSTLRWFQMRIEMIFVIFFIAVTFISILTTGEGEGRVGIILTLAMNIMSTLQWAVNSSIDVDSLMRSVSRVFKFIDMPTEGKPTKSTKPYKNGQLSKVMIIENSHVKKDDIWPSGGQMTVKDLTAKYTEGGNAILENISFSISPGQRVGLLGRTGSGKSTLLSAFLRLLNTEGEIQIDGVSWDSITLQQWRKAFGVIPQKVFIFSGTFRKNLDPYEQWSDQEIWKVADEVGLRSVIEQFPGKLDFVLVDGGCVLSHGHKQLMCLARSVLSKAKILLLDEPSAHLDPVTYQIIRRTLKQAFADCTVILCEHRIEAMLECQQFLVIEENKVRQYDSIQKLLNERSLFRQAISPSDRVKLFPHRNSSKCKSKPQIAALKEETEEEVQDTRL

Turning to `O=C(O)c1ccc(/C=C2\SC(=S)N(c3cccc(C(F)(F)F)c3)C2=O)cc1` [CFTRinh-172, 3-[(3-trifluoromethyl)phenyl]-5-[(4-carboxyphenyl)methylene]-2-thioxo-4-thiazolidinone], on CFTR, the IC50 is 200 to 500 nM and the Kd was around 300 nM. In addition, the Hill coefficient at CFTR (dose-inhibition of short-circuit current) is recorded as around 1. In addition, the “cholera-toxin induced fluid secretion in rat intestinal loops” value in test [1] is given as “prevented cholera-toxin induced fluid secretion”. Also, in test [2], the “block of Cl^−/HCO3^− exchanger (AE1)” value is reported as “did not block”. For the same molecule, the “block of volume-activated Cl^− currents” value in test [3] is listed as “did not block”.
